# How the values were obtained:
# [1] = molecular target: T1, ERK5 (Homo sapiens, UniProt Q13164); assay: Probe-based (AX9989 acyl phosphate ATP probe) kinase profiling in Jurkat lysate: ERK5; assay type: binding; conditions: for IC50: calculated from percent inhibition of AX9989 labeling and the screening concentration, Jurkat lysate; for inhibition at 0.1 µM: screening concentration 0.1 μM
# T1 construct: screened for activity against several kinases in Jurkat cells; endogenous in cells; host or cells: Jurkat cell lysate
# T1 sequence (Q13164 whole entry): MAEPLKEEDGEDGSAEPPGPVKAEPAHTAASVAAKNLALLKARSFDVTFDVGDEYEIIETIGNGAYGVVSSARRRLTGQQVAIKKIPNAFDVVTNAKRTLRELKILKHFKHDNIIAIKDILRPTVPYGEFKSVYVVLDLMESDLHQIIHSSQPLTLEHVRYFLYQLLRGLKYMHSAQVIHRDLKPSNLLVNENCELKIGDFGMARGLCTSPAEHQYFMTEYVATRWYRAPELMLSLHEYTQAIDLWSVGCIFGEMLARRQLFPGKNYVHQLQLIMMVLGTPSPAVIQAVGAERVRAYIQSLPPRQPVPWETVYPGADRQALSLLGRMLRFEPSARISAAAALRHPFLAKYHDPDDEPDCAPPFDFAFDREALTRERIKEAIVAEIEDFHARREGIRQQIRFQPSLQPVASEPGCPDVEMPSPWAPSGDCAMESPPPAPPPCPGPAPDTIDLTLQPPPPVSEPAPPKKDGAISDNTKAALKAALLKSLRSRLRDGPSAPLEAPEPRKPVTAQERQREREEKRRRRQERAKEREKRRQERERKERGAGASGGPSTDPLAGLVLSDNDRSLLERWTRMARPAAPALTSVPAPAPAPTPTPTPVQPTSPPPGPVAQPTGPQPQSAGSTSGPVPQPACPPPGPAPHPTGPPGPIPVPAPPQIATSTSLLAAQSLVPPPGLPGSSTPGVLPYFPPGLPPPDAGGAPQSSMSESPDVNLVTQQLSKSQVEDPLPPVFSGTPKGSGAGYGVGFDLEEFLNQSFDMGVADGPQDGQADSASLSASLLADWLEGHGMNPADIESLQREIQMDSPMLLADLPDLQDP
# How it was run: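 ERK5 IC50 values came from percent inhibition at the screening concentration, measured as loss of LC/MS signal of probe-labelled active-site peptides. Compound was added for 15 min at room temperature to Jurkat lysate (5 mg/ml, 20 mM MnCl2) before labelling with AX9989 ATP acyl phosphate probe at 5 μM.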
# [2] = molecular target: T2, AurA (Homo sapiens, UniProt O14965); assay: Probe-based (AX9989) kinase profiling in Jurkat lysate: AurA; assay type: binding; conditions: read-out: Kinase inhibition % at indicated screening concentration: AurA; for inhibition at 0.1 µM: screening concentration 0.1 μM
# T2 construct: screened for activity against several kinases in Jurkat cells; endogenous in cells; host or cells: Jurkat cell lysate
# T2 sequence (O14965 1-403): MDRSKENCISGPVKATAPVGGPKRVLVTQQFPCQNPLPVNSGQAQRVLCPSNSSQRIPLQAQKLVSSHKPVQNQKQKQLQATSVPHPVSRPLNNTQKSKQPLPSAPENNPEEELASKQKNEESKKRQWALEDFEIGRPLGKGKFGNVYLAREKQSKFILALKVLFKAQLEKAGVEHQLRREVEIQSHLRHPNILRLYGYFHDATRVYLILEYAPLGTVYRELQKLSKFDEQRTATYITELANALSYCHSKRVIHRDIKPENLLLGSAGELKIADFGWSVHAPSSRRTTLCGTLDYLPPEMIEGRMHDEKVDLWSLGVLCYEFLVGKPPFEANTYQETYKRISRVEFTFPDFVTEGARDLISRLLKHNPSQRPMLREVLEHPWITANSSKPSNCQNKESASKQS
# How it was run: (§1)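 Read-out: LC/MS intensity of desthiobiotinylated kinase active-site peptides, percent inhibition normalized to no-compound lysate. Jurkat lysate with 20 mM MnCl2 received compound for 15 min at room temperature, then 5 μM AX9989 probe; duplicates.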
# [3] = system: AurB or AurC; assay: Probe-based (AX9989) kinase profiling in Jurkat lysate: AurB or AurC; assay type: binding
# How it was run: as §1
# [4] = molecular target: T3, JAK1 (Homo sapiens, UniProt P23458); assay: Probe-based (AX9989) kinase profiling in Jurkat lysate: JAK1; assay type: binding; conditions: read-out: Kinase inhibition % at indicated screening concentration: JAK1; for inhibition at 0.1 µM: screening concentration 0.1 μM
# T3 construct: screened for activity against several kinases in Jurkat cells; endogenous in cells; host or cells: Jurkat cell lysate
# T3 sequence (P23458 whole entry): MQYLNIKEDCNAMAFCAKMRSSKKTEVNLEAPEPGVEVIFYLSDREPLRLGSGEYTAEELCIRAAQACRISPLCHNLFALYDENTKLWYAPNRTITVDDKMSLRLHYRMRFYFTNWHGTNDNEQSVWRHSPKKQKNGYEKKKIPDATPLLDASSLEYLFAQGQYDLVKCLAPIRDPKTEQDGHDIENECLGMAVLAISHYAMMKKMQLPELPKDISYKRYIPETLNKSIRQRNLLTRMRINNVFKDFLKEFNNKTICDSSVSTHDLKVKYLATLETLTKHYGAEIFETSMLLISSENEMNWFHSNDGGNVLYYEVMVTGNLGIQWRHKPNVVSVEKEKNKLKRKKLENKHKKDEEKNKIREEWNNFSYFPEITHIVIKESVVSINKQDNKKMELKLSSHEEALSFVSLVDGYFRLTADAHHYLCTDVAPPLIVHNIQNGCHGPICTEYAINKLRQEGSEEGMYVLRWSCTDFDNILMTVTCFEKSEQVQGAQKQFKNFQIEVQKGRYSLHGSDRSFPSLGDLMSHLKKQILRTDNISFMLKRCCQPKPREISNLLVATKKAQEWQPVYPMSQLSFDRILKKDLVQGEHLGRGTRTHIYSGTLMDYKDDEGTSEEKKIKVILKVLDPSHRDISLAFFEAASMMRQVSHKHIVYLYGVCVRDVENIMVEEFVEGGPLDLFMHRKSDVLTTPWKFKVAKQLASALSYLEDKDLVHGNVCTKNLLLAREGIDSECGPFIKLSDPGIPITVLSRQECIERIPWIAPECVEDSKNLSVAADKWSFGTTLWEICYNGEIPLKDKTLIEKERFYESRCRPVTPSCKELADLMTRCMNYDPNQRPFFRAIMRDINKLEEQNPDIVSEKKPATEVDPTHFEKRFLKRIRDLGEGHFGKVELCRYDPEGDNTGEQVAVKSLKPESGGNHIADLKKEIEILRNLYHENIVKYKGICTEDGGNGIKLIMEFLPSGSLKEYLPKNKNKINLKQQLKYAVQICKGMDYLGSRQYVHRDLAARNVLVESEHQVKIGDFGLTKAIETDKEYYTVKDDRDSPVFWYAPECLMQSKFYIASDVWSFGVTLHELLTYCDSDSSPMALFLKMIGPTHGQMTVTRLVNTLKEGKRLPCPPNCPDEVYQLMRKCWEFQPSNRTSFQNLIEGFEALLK
# How it was run: as §1
# [5] = system: AMPKa1 or AMPKa2; assay: Probe-based (AX9989) kinase profiling in Jurkat lysate: AMPKa1 or AMPKa2; assay type: binding
# How it was run: as §1
# [6] = molecular target: T4, ACK (Homo sapiens, UniProt Q07912); assay: Probe-based (AX9989) kinase profiling in Jurkat lysate: ACK; assay type: binding; conditions: read-out: Kinase inhibition % at indicated screening concentration: ACK; for inhibition at 0.1 µM: screening concentration 0.1 μM
# T4 construct: screened for activity against several kinases in Jurkat cells; endogenous in cells; host or cells: Jurkat cell lysate
# T4 sequence (Q07912 whole entry): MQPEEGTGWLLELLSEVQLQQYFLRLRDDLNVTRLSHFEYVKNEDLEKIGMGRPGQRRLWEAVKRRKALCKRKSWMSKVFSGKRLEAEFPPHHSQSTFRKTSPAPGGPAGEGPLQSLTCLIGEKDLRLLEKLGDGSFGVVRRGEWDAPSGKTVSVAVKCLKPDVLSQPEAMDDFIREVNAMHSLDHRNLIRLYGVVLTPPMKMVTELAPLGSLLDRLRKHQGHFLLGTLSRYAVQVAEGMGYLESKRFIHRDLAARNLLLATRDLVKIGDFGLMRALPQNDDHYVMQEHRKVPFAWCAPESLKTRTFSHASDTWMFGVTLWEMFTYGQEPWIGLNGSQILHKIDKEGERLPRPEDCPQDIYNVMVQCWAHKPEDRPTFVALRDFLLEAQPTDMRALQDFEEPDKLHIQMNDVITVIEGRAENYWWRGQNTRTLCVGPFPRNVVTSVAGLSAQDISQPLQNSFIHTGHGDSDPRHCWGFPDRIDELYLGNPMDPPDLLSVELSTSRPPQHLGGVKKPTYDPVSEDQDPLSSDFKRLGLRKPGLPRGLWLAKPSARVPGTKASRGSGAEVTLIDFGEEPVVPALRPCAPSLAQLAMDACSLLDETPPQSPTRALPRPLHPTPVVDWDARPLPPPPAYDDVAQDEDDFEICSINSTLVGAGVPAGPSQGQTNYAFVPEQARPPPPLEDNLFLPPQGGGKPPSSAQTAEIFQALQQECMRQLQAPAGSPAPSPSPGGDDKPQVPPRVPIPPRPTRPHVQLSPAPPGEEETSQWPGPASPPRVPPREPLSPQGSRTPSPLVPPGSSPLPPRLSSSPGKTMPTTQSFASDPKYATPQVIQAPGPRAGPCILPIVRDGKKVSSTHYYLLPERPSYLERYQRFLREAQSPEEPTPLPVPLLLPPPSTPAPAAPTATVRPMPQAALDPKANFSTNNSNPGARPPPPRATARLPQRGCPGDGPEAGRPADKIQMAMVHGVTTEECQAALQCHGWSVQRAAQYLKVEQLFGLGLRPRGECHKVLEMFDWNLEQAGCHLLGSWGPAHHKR
# How it was run: as §1
# [7] = system: ABL or ARG; assay: Probe-based (AX9989) kinase profiling in Jurkat lysate: ABL or ARG; assay type: binding
# How it was run: as §1
# [8] = system: human PBMCs; assay: Human PBMC TNF-α response to endotoxin (ELISA); assay type: cell-based; conditions: 0.1 μg/ml LPS 16 h, read-out: EC50 for the inhibition of the human PBMC TNF-α response to endotoxin, ave. ± S.D.
# How it was run: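 PBMCs at 2e6 cells/ml in RPMI 1640 with 10% charcoal-dextran-treated FBS were pre-treated 1 h at 37 °C with compound (4-point 1:5 dilution from 10 μM). Stimulation with 0.1 μg/ml E. coli 0111:B4 LPS for 16 h; TNF-α measured by ELISA (A450) in 25-fold diluted supernatant.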
# [9] = molecular target: T5, BRD4 bromodomain domain I [BRD4(1)] (Homo sapiens, UniProt O60885); assay: BRD4 bromodomain domain 1 inhibition assay (TR-FRET); assay type: binding; conditions: screening concentration 10 μM
# T5 construct: BRD4 bromodomain domain I [BRD4(1)]; purchased Cayman Chemicals
# How it was run: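 0.5% DMSO, in triplicate, using Cayman BRD4(1) TR-FRET protocol with slight modification. 670/620 nm ratio normalized to 10 μM JQ1, with DMSO control set as 0% inhibition.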
# [10] = read-out: Kinase inhibition % at indicated screening concentration: ERK5
Structure (SMILES),IC50 [1],"inhibition at 1 µM ([1]; screening concentration 1.0 μM, read-out: Kinase inhibition % at indicated screening concentration: ERK5)",inhibition at 1 µM ([2]; screening concentration 1.0 μM),Kinase inhibition % at indicated screening concentration: AurB or AurC ([3]; screening concentration 1.0 μM),inhibition at 1 µM ([4]; screening concentration 1.0 μM),Kinase inhibition % at indicated screening concentration: AMPKa1 or AMPKa2 ([5]; screening concentration 1.0 μM),inhibition at 1 µM ([6]; screening concentration 1.0 μM),Kinase inhibition % at indicated screening concentration: ABL or ARG ([7]; screening concentration 1.0 μM),EC50 [8],inhibition at 10 µM [9],"inhibition at 0.1 µM [1, 10]",inhibition at 0.1 µM [2],Kinase inhibition % at indicated screening concentration: AurB or AurC ([3]; screening concentration 0.1 μM),inhibition at 0.1 µM [4],Kinase inhibition % at indicated screening concentration: AMPKa1 or AMPKa2 ([5]; screening concentration 0.1 μM),inhibition at 0.1 µM [6],Kinase inhibition % at indicated screening concentration: ABL or ARG ([7]; screening concentration 0.1 μM)
CCOc1cc(C(=O)N2CCCCC2)ccc1Nc1cc2c(cn1)N(C)C(=O)c1ccccc1N2C [Compound 12],101 to 500 nM,75 to 90%,≤ 35%,E (E is ≦35%),≤ 35%,E (E is ≦35%),≤ 35%,E (E is ≦35%),630 nM,70 to 85%,,,,,,,
CCOc1cc(C(=O)N2CCC(N3CCCC3)C2)ccc1Nc1cc2c(cn1)N(C)C(=O)c1occc1N2C (centres unmarked) [Compound 15],≤ 50 nM,,,,,,,,490 ± 30 nM,> 85%,75 to 90%,≤ 35%,E (E is ≦35%),≤ 35%,E (E is ≦35%),≤ 35%,E (E is ≦35%)
CCOc1cc(C(=O)N2CC[C@H](O)C2)ccc1Nc1cc2c(cn1)N(C)C(=O)c1occc1N2C [Compound 17],≤ 50 nM,,,,,,,,2230 nM,> 85%,75 to 90%,≤ 35%,E (E is ≦35%),≤ 35%,E (E is ≦35%),≤ 35%,E (E is ≦35%)
C=CCN1CCN(C(=O)c2ccc(Nc3cc4c(cn3)N(C)C(=O)c3ccccc3N4C)c(OCC)c2)CC1 [Compound 21],≤ 50 nM,,,,,,,,1220 nM,70 to 85%,75 to 90%,≤ 35%,E (E is ≦35%),≤ 35%,E (E is ≦35%),≤ 35%,E (E is ≦35%)
CCOc1cc(C(=O)N2CC[C@@H](N3CCCC3)C2)ccc1Nc1cc2c(cn1)N(C)C(=O)c1ccccc1N2C [Compound 24],≤ 50 nM,,,,,,,,910 nM,> 85%,> 90%,≤ 35%,E (E is ≦35%),≤ 35%,E (E is ≦35%),≤ 35%,E (E is ≦35%)
CCOc1cc(C(=O)N2CC[C@@H](N(C)C)C2)ccc1Nc1cc2c(cn1)N(C)C(=O)c1occc1N2C [Compound 25],≤ 50 nM,,,,,,,,1170 ± 70 nM,> 85%,> 90%,≤ 35%,E (E is ≦35%),≤ 35%,E (E is ≦35%),≤ 35%,E (E is ≦35%)
CCOc1cc(C(=O)N(C)CCN2CCCC2)ccc1Nc1cc2c(cn1)N(C)C(=O)c1ccccc1N2C [Compound 28],50 to 100 nM,,,,,,,,480 nM,> 85%,> 90%,≤ 35%,E (E is ≦35%),≤ 35%,E (E is ≦35%),≤ 35%,E (E is ≦35%)
CCOc1cc(C(=O)N(C)CCn2ccnc2)ccc1Nc1cc2c(cn1)N(C)C(=O)c1ccccc1N2C [Compound 30],≤ 50 nM,,,,,,,,1260 ± 170 nM,70 to 85%,75 to 90%,≤ 35%,E (E is ≦35%),≤ 35%,E (E is ≦35%),≤ 35%,E (E is ≦35%)
CCOc1cc(C(=O)N2CCNC[C@@H]2C)ccc1Nc1cc2c(cn1)N(C)C(=O)c1ccccc1N2C [Compound 31],≤ 50 nM,,,,,,,,1250 nM,> 85%,75 to 90%,≤ 35%,E (E is ≦35%),≤ 35%,E (E is ≦35%),≤ 35%,E (E is ≦35%)
CCOc1cc(C(=O)N2CCN(CCO)CC2)ccc1Nc1cc2c(cn1)N(C)C(=O)c1ccccc1N2C [Compound 37],≤ 50 nM,,,,,,,,960 nM,70 to 85%,75 to 90%,≤ 35%,E (E is ≦35%),≤ 35%,E (E is ≦35%),≤ 35%,E (E is ≦35%)
CCOc1cc(C(=O)N2CCN(C3CC3)CC2)ccc1Nc1cc2c(cn1)N(C)C(=O)c1ccccc1N2C [Compound 39],≤ 50 nM,,,,,,,,1770 nM,< 70%,50 to 75%,≤ 35%,E (E is ≦35%),≤ 35%,E (E is ≦35%),≤ 35%,E (E is ≦35%)
